Patent US10052320B2, “Substituted quinoxalines as FGFR kinase inhibitors” (ASTEX THERAPEUTICS LIMITED, priority 2011, dated 2018)
Like-named read-outs stand apart in the source and are kept apart here.

Key:
FGFR1 (h) = FGFR1 (h) (Homo sapiens, UniProt P11362); assay: FGFR1 (enzymatic assay), TR-FRET; type: biochemical; conditions: read-out: FGFR 1 pIC50 (converted)
Protocol: (§1) In a final reaction volume of 30 μL, FGFR1 (h) (25 ng/ml) was incubated with 50 mM HEPES pH 7.5, 6 mM MnCl2, 1 mM DTT, 0.1 mM Na3VO4, 0.01% Triton-X-100, 500 nM Btn-Flt3 and 5 μM ATP in the presence of compound (1% DMSO final). […] Time-Resolved Fluorescence Resonance Energy Transfer (TR-FRET) signal (ex340 nm. Em 620 nm, em 655 nm) was measured afterwards and results are expressed in RFU (Relative Fluorescence Units).

FGFR3 (h) = FGFR3 (h) (Homo sapiens, UniProt P22607); assay: FGFR3 (enzymatic assay), TR-FRET; type: biochemical; conditions: read-out: FGFR 3 pIC50 (converted)
Chain of FGFR3 (h) (P22607 23-806): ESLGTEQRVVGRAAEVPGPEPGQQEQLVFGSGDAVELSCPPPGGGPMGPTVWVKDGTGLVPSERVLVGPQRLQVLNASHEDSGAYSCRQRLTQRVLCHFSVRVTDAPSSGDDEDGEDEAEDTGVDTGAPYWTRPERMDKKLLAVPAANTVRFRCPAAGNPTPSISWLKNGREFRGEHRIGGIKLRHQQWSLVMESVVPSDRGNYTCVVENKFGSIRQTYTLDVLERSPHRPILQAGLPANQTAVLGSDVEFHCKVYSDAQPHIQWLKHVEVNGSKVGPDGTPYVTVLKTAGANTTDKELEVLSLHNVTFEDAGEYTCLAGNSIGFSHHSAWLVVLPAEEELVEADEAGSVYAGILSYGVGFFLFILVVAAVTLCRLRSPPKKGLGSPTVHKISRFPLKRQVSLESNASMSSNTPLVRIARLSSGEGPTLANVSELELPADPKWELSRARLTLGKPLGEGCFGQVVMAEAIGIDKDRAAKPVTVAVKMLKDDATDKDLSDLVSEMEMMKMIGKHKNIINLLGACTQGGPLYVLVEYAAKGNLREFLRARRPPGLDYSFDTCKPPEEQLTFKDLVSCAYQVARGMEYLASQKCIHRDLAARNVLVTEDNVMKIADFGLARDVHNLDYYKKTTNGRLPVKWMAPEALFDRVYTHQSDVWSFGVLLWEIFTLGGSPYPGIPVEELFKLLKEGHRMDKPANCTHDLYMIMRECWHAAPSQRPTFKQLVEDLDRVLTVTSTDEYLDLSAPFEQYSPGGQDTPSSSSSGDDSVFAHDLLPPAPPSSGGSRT
Protocol: as §1, with “μL, FGFR3” for “μL, FGFR1”, “(h) (40” for “(h) (25”, “and 25” for “and 5”

[1] = target: Ba/F3-FGFR1-transfected cells (Homo sapiens, UniProt P11362); assay: Ba/F3-FGFR1 (minus IL3) cellular proliferation assay, Alamar Blue; type: cell-based; conditions: for BAF3-FGFR 1 (MIN IL3) 96 well pIC50: minus IL3, 96 well; for BAF3-FGFR 1 (MIN IL3) 384 well pIC50: minus IL3, 384 well
Chain of Ba/F3-FGFR1-transfected cells (P11362 whole entry, change not shown): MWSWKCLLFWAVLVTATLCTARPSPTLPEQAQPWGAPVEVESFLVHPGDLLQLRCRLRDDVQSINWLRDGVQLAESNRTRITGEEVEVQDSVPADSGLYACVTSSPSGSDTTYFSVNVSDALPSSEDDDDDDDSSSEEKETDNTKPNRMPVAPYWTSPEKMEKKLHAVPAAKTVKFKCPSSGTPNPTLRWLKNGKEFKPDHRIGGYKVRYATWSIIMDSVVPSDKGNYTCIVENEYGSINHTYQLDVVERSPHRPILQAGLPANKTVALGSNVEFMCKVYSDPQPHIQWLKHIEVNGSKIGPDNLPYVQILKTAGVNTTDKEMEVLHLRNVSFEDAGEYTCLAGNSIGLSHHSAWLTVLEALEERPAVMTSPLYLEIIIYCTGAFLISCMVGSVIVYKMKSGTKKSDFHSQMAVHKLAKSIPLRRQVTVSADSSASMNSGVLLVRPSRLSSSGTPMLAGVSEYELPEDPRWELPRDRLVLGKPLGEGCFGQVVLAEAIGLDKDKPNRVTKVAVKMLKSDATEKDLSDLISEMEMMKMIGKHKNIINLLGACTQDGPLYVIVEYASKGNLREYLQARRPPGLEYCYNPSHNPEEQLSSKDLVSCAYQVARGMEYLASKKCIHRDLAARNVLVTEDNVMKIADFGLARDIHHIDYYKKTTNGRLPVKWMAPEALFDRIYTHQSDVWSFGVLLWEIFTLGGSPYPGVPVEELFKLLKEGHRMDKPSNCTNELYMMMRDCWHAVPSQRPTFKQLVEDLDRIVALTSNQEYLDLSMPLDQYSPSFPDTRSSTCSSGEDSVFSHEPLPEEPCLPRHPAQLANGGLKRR
Summary of the method: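 First, compound was dispensed and cells added at 20000/well, or 10000/well in the larger-well version. Next came a 24 h incubation at 37 °C. Finally, resazurin reagent was applied for 4 h before fluorescence measurement at 540/590 nm.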

[2] = test system: Ba/F3-FGFR3-transfected cells in the presence of 10 ng/ml murine IL3; assay: Ba/F3-FGFR3 (plus IL3) cellular proliferation counterscreen, Alamar Blue; type: cell-based; conditions: Mus musculus
Summary of the method: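 Compound in DMSO was applied to FGFR3-transfected Ba/F3 cells, which were cultured 24 h and assessed for viability by Alamar Blue reduction over 4 h (fluorescence, ex 540/em 590 nm).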

[3] = test system: Ba/F3-KDR-transfected cells in the presence of 10 ng/ml murine IL3; assay: Ba/F3-KDR (plus IL3) cellular proliferation counterscreen, Alamar Blue; type: cell-based; conditions: Mus musculus, plus 10 ng/ml murine IL3
Summary of the method: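 Proliferation of KDR-transfected Ba/F3 cells is measured by Alamar Blue fluorescence after 24 h with compound plus 4 h resazurin at 37 °C. For the counterscreen, 10 ng/ml murine IL3 is present.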

[4] = test system: Ba/F3-Flt3-transfected cells in the presence of 10 ng/ml murine IL3; assay: Ba/F3-Flt3 (plus IL3) cellular proliferation counterscreen, Alamar Blue; type: cell-based; conditions: Mus musculus; plus 10 ng/ml murine IL3; read-out: BAF3-FLT3 (PLUS IL3) 96 well pIC50 (converted)
[5] = plus 10 ng/ml murine IL3, 384 well, read-out: BAF3-FGFR 3 (PLUS IL3) 384 well pIC50 (converted)
[6] = plus IL3, 96 well, read-out: BAF3-FGFR 3 (PLUS IL3) 96 well pIC50 (converted)
[7] = read-out: BAF3-KDR (PLUS IL3) 96 well pIC50 (converted)
[8] = read-out: BAF3-KDR (PLUS IL3) 384 well pIC50 (converted)

Chain of FGFR1 (h) (P11362 22-822): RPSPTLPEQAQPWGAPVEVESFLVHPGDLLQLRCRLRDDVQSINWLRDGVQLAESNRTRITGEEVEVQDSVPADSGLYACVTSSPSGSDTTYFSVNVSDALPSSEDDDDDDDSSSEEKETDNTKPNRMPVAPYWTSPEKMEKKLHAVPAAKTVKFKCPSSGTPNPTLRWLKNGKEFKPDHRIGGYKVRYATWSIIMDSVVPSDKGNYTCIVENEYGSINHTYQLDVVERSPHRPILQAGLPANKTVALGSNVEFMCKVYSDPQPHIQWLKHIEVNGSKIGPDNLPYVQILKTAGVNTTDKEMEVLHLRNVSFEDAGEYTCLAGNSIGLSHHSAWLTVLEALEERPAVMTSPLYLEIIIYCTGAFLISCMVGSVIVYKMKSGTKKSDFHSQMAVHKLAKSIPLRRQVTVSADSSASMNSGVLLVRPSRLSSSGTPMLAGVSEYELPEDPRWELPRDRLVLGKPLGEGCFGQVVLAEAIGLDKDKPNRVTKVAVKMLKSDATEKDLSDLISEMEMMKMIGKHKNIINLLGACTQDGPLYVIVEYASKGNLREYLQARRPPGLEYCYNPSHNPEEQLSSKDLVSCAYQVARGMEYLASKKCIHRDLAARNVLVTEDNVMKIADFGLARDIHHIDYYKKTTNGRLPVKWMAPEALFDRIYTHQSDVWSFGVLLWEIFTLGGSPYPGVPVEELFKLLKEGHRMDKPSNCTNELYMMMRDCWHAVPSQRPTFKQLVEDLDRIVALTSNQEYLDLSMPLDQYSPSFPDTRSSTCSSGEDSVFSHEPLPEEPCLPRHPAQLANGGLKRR

| Structure (SMILES) | IC50 (FGFR1 (h)) [µM] | IC50 (FGFR3 (h)) [µM] | BAF3-FGFR 1 (MIN IL3) 96 well pIC50 [1] | BAF3-FGFR 1 (MIN IL3) 384 well pIC50 [1] | IC50 [2, 5] [µM] | IC50 [2, 6] [µM] | IC50 [3, 7] [µM] | IC50 [3, 8] [µM] | IC50 [4] [µM] |
| --- | --- | --- | --- | --- | --- | --- | --- | --- | --- |
| COc1cc(OC)cc(N(CC2CC2)c2ccc3ncc(-n4cnc(C)c4)nc3c2)c1 [Compound 30] | 0.0513 | 0.0269 | 5.03 | 5.32 | > 10 | > 10 | > 10 | > 10 | > 10 |
| COc1cc(OC)cc(N(CC2CC2)c2ccc3ncc(-c4cn(CCO)nn4)nc3c2)c1 [Compound 40] | 0.0776 | 0.049 | 5.4 | 5.24 | > 10 | > 10 | > 10 | > 10 | > 10 |
| COc1cc(OC)cc(N(CC2CC2)c2ccc3ncc(-n4cncn4)nc3c2)c1 [Compound 50] | 0.759 | 0.447 | <5 | <5 | > 10 | > 10 | > 10 | > 10 | > 10 |
| COc1cc(OC)cc(N(CC2CC2)c2ccc3ncc(-c4cn(C)nn4)nc3c2)c1 [Compound 71] | – | – | – | – | > 10 | > 10 | > 10 | > 10 | > 10 |
| COc1cc(OC)cc(N(CC2CC2)c2ccc3ncc(-c4nnnn4C)nc3c2)c1 [Compound 83] | > 1 | > 1 | <5 | <5 | > 10 | > 10 | > 10 | > 10 | > 10 |
